Source: article PMC6104039 (Nature Communications, 2018)
Several values for one entry are separate records, joined by “and”; a condition that tells them apart may be missing. Equal entries are not always repeated. Entries after “also recorded” stand apart in the source; their conditions may differ.

Tests used:
[1] = system: cerebellum; assay: Ceramide, SM and HexCer levels in cerebellum; assay type: in vivo, mice;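 as to Cer 18:1/24:0 content of cerebellum: pmol per mg cerebellum tissue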;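 as to Cer 18:1/24:1 content of cerebellum: pmol per mg cerebellum tissue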;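 as to Cer 18:2/18:0 content of cerebellum: pmol per mg cerebellum tissue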;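 as to HexCer 18:1 content of cerebellum: pmol per mg cerebellum tissue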;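 as to HexCer 20:1 content of cerebellum: pmol per mg cerebellum tissue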;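 as to HexCer 22:1 content of cerebellum: pmol per mg cerebellum tissue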;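 as to HexCer 24:0 content of cerebellum: pmol per mg cerebellum tissue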;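 as to SM 32:1 content of cerebellum: pmol per mg cerebellum tissue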;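 as to SM 34:2 content of cerebellum: pmol per mg cerebellum tissue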;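 as to SM 36:1 content of cerebellum: pmol per mg cerebellum tissue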;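 as to SM 36:2 content of cerebellum: pmol per mg cerebellum tissue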;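 as to SM 40:1 content of cerebellum: pmol per mg cerebellum tissue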;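 as to SM 40:2 content of cerebellum: pmol per mg cerebellum tissue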;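 as to SM 42:1 content of cerebellum: pmol per mg cerebellum tissue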;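 as to SM 42:2 content of cerebellum: pmol per mg cerebellum tissue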
Text: Supplementary Figure 7. […] Ceramide, SM, and HexCer […]
levels in the cerebellum of vehicle- or P053-treated mice on a chow or HFD. N = 10 mice per group, except for chow vehicle group (n = 9). Mean ± SEM shown. No lipids were […]
comparisons. C18:0 HexCer was 45% lower in the P053-treated compared to the vehicle-treated HFD group (unadjusted P value = 0.02; adjusted value P = 0.16). Raw data for these figures is provided in Supplementary Data File 1.

[2] = target: T1, recombinant human sphingosine kinase 2 (Homo sapiens, UniProt Q9NRA0); assay: Sphingosine kinase assay with NBD-dihydrosphingosine, TLC; assay type: biochemical; details: 10 μM
T1 construct: purchased R&D Systems
T1 sequence (Q9NRA0 whole entry): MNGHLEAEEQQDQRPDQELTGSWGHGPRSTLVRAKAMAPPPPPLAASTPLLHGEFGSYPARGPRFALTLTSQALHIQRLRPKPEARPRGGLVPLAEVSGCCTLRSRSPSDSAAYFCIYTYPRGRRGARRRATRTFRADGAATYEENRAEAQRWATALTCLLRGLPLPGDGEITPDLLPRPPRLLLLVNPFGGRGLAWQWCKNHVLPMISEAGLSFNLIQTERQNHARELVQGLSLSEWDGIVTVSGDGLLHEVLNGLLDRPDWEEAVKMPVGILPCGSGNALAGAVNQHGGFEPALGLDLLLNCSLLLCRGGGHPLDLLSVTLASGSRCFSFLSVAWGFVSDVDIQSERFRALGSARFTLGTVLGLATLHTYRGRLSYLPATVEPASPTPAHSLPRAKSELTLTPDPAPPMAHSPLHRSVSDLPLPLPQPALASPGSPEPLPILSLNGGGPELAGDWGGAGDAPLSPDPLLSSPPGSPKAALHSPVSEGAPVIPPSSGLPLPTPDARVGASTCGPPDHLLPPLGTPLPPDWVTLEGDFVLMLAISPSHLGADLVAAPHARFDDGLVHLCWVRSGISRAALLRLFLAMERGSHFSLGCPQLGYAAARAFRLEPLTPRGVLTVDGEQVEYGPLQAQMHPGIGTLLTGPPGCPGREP
Procedure: Sphingosine kinase assays were performed using fluorescent NBD-dihydrosphingosine[63],[64]. […] Reactions were stopped with 100 μL methanol, and 5 μL amounts were resolved on Silica Gel 60 thin layer chromatography (TLC) plates using butanol:acetic acid:water (3:1:1). The fluorescent NBD-dihydrosphingosine 1-phosphate band was quantified using a BioRad ChemiDoc imaging system with excitation by UV light.
Supplementary Figure 2. […] Activity of recombinant
human sphingosine kinases 1 and 2 (SphK1 and 2) was assessed in the presence of 10 µM
Activity is expressed as a percentage of the vehicle control.

[3] = system: soleus muscle strips; assay: Palmitate oxidation in soleus muscle strips pre-treated in vitro; design: species or system mice; details: 1.5 h in vitro, 1 μM
Procedure: After a 30 min pre-incubation, muscles were transferred into vials containing 0.5 mCi/mL of [1-^14C]-palmitate in modified Krebs-Henseleit buffer for another 1 h. The reaction was stopped by removal of the muscles and addition of 1 M perchloric acid to the reaction mixture. ^14C-labelled CO2 was quantified as described above. The muscles were blotted dry and snap frozen in liquid nitrogen for subsequent lipid extraction and TLC. Muscles were homogenized using a Polytron (Kinematica, Littau-Lucerne, Switzerland) in 1.5 mL 2:1 chloroform-methanol (v/v). […] The upper aqueous phase was used to quantify ASM, and the lower organic phase was collected and dried under stream of N2, then reconstituted in hexane and spotted on a Silica Gel 60 F254 TLC plate. The TLC plate was developed in hexane/diethyl ether/glacial acetic acid (85:15:1), then air dried. TAG bands were visualised using iodine vapour staining, using an external standard to mark their position, then scraped into vials and quantified by liquid scintillation counting.

[4] = HFD + P053, individual mice, raw data for Supplementary Figure 7

C[C@@](N)(CO)CCc1ccc(OCc2ccc(Cl)c(Cl)c2)cc1 [P053, (S)-2-amino-4-(4-(3,4-dichlorobenzyloxy)phenyl)-2-methylbutan-1-ol]
Cer 18:1/20:0 content of cerebellum [1, 4]: 9.681 and 8.421 and 28.463 and 10.3564 and 18.7569 and 5.821 and 8.037 and 34.6254 and 7.548 and 24.475
Cer 18:1/22:0 content of cerebellum [1, 4]: 15.9533 and 14.996 and 57.2919 and 21.4543 and 38.4094 and 10.5899 and 9.986 and 74.6469 and 9.154 and 46.3627
Cer 18:1/24:0 content of cerebellum [1, 4]: 36.0277 and 35.1841 and 132.359 and 47.5021 and 88.9579 and 25.0017 and 22.1183 and 201.705 and 15.8687 and 131.28
Cer 18:1/24:1 content of cerebellum [1, 4]: 97.7004 and 105.297 and 370.02 and 145.116 and 239.743 and 56.9618 and 60.5027 and 471.673 and 50.6294 and 252.902
Cer 18:2/18:0 content of cerebellum [1, 4]: 5.2575 and 7.26 and 15.0915 and 8.468 and 10.666 and 4.461 and 4.156 and 21.6288 and 3.082 and 13.66
HexCer 16:0 content of cerebellum [1, 4]: 8.934 and 17.284 and 8.364 and 13.8417 and 14.6417 and 7.1271 and 5.255 and 9.259 and 5.878 and 7.654
HexCer 18:0 content of cerebellum [1, 4]: 106.702 and 382.139 and 122.466 and 271.752 and 258.221 and 146.382 and 115.813 and 146.018 and 61.4581 and 111.285
HexCer 18:1 content of cerebellum [1, 4]: 19.0333 and 51.9273 and 16.2259 and 33.0148 and 32.5326 and 25.3913 and 23.9698 and 16.5527 and 15.5439 and 16.7312
HexCer 20:0 content of cerebellum [1, 4]: 25.9921 and 81.8108 and 22.9498 and 52.8818 and 49.4884 and 37.7023 and 27.8092 and 23.4231 and 13.0014 and 19.1491
HexCer 20:1 content of cerebellum [1, 4]: 2.413 and 5.45 and 1.502 and 2.714 and 3.093 and 3.36 and 3.204 and 0.8678 and 1.872 and 1.364
HexCer 22:0 content of cerebellum [1, 4]: 505.659 and 1204.39 and 420.547 and 840.893 and 660.332 and 669.272 and 501.784 and 427.814 and 264.729 and 391.884
HexCer 22:1 content of cerebellum [1, 4]: 79.5132 and 228.816 and 78.1356 and 158.552 and 150.676 and 92.9587 and 63.0534 and 66.2392 and 42.1951 and 49.044
HexCer 24:0 content of cerebellum [1, 4]: 2652.92 and 5943.48 and 2280.7 and 4343.65 and 3299.69 and 3289.82 and 2658.72 and 2324.32 and 1408.65 and 2090.2
HexCer 24:1 content of cerebellum [1, 4]: 5027.14 and 9363.75 and 4512.26 and 7271.57 and 6673.35 and 6052.94 and 5424.24 and 3829.42 and 3500.76 and 3500.55
SM 32:1 content of cerebellum [1, 4]: 9.976 and 12.4114 and 9.047 and 10.2584 and 10.5601 and 10.6625 and 8.862 and 9.432 and 8.153 and 9.013
SM 34:1 content of cerebellum [1, 4]: 133.106 and 161.415 and 90.4808 and 115.694 and 117.777 and 135.794 and 123.089 and 72.6388 and 98.8077 and 73.1632
SM 34:2 content of cerebellum [1, 4]: 5.986 and 10.8404 and 8.948 and 9.3676 and 9.279 and 9.028 and 5.849 and 7.187 and 3.938 and 7.222
SM 36:1 content of cerebellum [1, 4]: 437.801 and 529.096 and 247.962 and 355.417 and 343.012 and 490.447 and 544.072 and 175.073 and 405.398 and 201.504
SM 36:2 content of cerebellum [1, 4]: 35.911 and 106.46 and 51.4739 and 67.513 and 67.8953 and 51.6927 and 57.9458 and 40.9288 and 32.7758 and 44.6146
SM 38:1 content of cerebellum [1, 4]: 151.251 and 204.797 and 99.8821 and 137.133 and 146.282 and 182.882 and 197.347 and 79.7159 and 145.438 and 91.2461
SM 38:2 content of cerebellum [1, 4]: 6.1474 and 11.1901 and 6.7471 and 8.325 and 8.851 and 10.1186 and 6.052 and 4.124 and 3.938 and 4.099
SM 40:1 content of cerebellum [1, 4]: 183.889 and 372.913 and 177.074 and 235.958 and 281.655 and 224.359 and 174.632 and 162.333 and 129.812 and 151.975
SM 40:2 content of cerebellum [1, 4]: 54.9137 and 116.436 and 59.8853 and 73.425 and 86.9536 and 64.465 and 34.4644 and 47.3579 and 33.4194 and 39.329
SM 42:1 content of cerebellum [1, 4]: 210.79 and 460.407 and 223.848 and 278.666 and 328.3 and 236.404 and 186.283 and 198.576 and 131.683 and 195.129
SM 42:2 content of cerebellum [1, 4]: 687.51 and 1423.11 and 718.618 and 898.145 and 1023.47 and 688.732 and 582.437 and 593.074 and 472.141 and 503.36
C18:0 HexCer in cerebellum, lower than vehicle ([1]; HFD group, adjusted P = 0.16): 45%
C18 ceramide or SM levels in cerebellum ([1]; chow or HFD): did not affect
inhibition of sphingosine kinase 2 [2]: did not inhibit; also recorded: does not inhibit; also recorded: no inhibitory activity
palmitate oxidation [3]: not affected
